Assay results as given in US10294234B2, “HIV inhibitor compounds” (priority 2017, dated 2019).
Like-named read-outs stand apart in the source and are kept apart here.

What was measured:
[1] = test system: HIV-1 (IIIB) in MT-4 cells; assay: MT-4 HIV assay; assay type: cell-based; details: Human immunodeficiency virus 1, MT4, 120 h; HIV-1 (IIIB), MT-4 cells, 5 days, Cell Titer Glo; read-out: EC50
Outline: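 MT-4 cells infected with HIV-1 IIIB (1:250 stock dilution) were incubated with 1:3 serially diluted compounds in RPMI with 10% FBS for 5 days at 37 °C. Cell Titer Glo luminescence was the readout. Plates included mock-infected wells, no-drug wells and 5 uM AZT controls.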

[2] = Outline: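 Test compounds at 1 uM incubated in duplicate with dog, rat and human liver microsomes (0.5 mg/mL protein) plus NADPH-regenerating system; sampled at 2, 12, 25, 45 and 65 minutes. Parent remaining monitored by LC/MS/MS; Clint calculated from in vitro t1/2.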
[3] = human liver microsomes 0.5 mg/mL, 1 uM compound, NADPH
[4] = rat liver microsomes 0.5 mg/mL, 1 uM compound, NADPH

| Human Pred Cl. [2, 3] [L/H/kg] | Rat. Pred. Cl. [2, 4] [L/H/kg] | Compound | EC50 [1] [nM] | Human Pred Cl. ([2]; human, microsomes) [L/H/kg] | Rat. Pred. Cl. ([2]; rat, microsomes) [L/H/kg] |
| --- | --- | --- | --- | --- | --- |
|  |  | COC(=O)N[C@H](C(=O)N[C@@H](Cc1ccc(C#Cc2ccc(N3CC4CCC(C3)N4C3COC3)nc2)cc1)[C@@H](O)CN(Cc1c(F)cc(-c2cnn(C(F)F)c2)cc1F)NC(=O)[C@@H](NC(=O)OC)C(C)(C)CF)C(C)(C)CF [Example 233, methyl ((5S,8S,9S,14S)-11-(4-(1-(difluoromethyl)-1H-pyrazol-4-yl)-2,6-difluorobenzyl)-16-fluoro-5-(1-fluoro-2-methylpropan-2-yl)-9-hydroxy-15,15-dimethyl-8-(4-((6-(8-(oxetan-3-yl)-3,8-diazabicyclo[3.2.1]octan-3-yl)pyridin-3-yl)ethynyl)benzyl)-3,6,13-trioxo-2-oxa-4,7,11,12-tetraazahexadecan-14-yl)carbamate] | 2.71 | <0.11 | <0.18 |
|  |  | COC(=O)N[C@H](C(=O)N[C@@H](Cc1ccc(C#Cc2ccc(N3CC4CCC(C3)N4C3COC3)nc2)cc1)[C@@H](O)CN(Cc1c(F)cc(-c2ccn(CC(C)(C)O)n2)cc1F)NC(=O)[C@@H](NC(=O)OC)C(C)(C)C(F)(F)F)C(C)(C)C(F)(F)F [Example 16, Methyl ((5S,8S,9S,14S)-11-(2,6-difluoro-4-(1-(2-hydroxy-2-methylpropyl)-1H-pyrazol-3-yl)benzyl)-16,16,16-trifluoro-9-hydroxy-15,15-dimethyl-8-(4-((6-(8-(oxetan-3-yl)-3,8-diazabicyclo[3.2.1]octan-3-yl)pyridin-3-yl)ethynyl)benzyl)-3,6,13-trioxo-5-(1,1,1-trifluoro-2-methylpropan-2-yl)-2-oxa-4,7,11,12-tetraazahexadecan-14-yl)carbamate] | 4.64 | <0.11 | 0.45 |
|  |  | COC(=O)N[C@H](C(=O)N[C@@H](Cc1ccc(-c2ccn(CC(F)F)n2)cc1)[C@@H](O)CN(Cc1c(F)cc(-c2cnc(N3CC4CCC(C3)N4C3COC3)nc2)cc1F)NC(=O)[C@@H](NC(=O)OC)C(C)(C)C(F)(F)F)C(C)(C)C(F)(F)F [Example 212, Methyl ((5S,8S,9S,14S)-11-(2,6-difluoro-4-(2-(8-(oxetan-3-yl)-3,8-diazabicyclo[3.2.1]octan-3-yl)pyrimidin-5-yl)benzyl)-8-(4-(1-(2,2-difluoroethyl)-1H-pyrazol-3-yl)benzyl)-16,16,16-trifluoro-9-hydroxy-15,15-dimethyl-3,6,13-trioxo-5-(1,1,1-trifluoro-2-methylpropan-2-yl)-2-oxa-4,7,11,12-tetraazahexadecan-14-yl)carbamate] | 4.97 | 0.33 | 0.33 |
| <0.11 | <0.18 | COC(=O)N[C@H](C(=O)N[C@@H](Cc1ccc(C#Cc2ccc(-c3cn4c(n3)CN(C)C(=O)C4)cc2)cc1)[C@@H](O)CN(Cc1c(F)cc(-c2ccn(C(F)F)n2)cc1F)NC(=O)[C@@H](NC(=O)OC)C(C)(C)C(F)(F)F)C(C)(C)C(F)(F)F [Example 134, Methyl ((5S,8S,9S,14S)-11-(4-(1-(difluoromethyl)-1H-pyrazol-3-yl)-2,6-difluorobenzyl)-16,16,16-trifluoro-9-hydroxy-15,15-dimethyl-8-(4-((4-(7-methyl-6-oxo-5,6,7,8-tetrahydroimidazo[1,2-a]pyrazin-2-yl)phenyl)ethynyl)benzyl)-3,6,13-trioxo-5-(1,1,1-trifluoro-2-methylpropan-2-yl)-2-oxa-4,7,11,12-tetraazahexadecan-14-yl)carbamate] | 5.52 |  |  |
|  |  | COC(=O)N[C@H](C(=O)N[C@@H](Cc1ccc(C#Cc2cnc(N3CC4CCC(C3)N4C3COC3)nc2)cc1)[C@@H](O)CN(Cc1c(F)cc(-c2ccn(C3CC3)n2)cc1F)NC(=O)[C@@H](NC(=O)OC)C(C)(C)C(F)(F)F)C(C)(C)C(F)(F)F [Example 37, Methyl ((5S,8S,9S,14S)-11-(4-(1-cyclopropyl-1H-pyrazol-3-yl)-2,6-difluorobenzyl)-16,16,16-trifluoro-9-hydroxy-15,15-dimethyl-8-(4-((2-(8-(oxetan-3-yl)-3,8-diazabicyclo[3.2.1]octan-3-yl)pyrimidin-5-yl)ethynyl)benzyl)-3,6,13-trioxo-5-(1,1,1-trifluoro-2-methylpropan-2-yl)-2-oxa-4,7,11,12-tetraazahexadecan-14-yl)carbamate] | 6.75 | <0.11 | 0.32 |
|  |  | COC(=O)N[C@H](C(=O)NN(Cc1c(F)cc(-c2ccccn2)cc1F)C[C@H](O)[C@H](Cc1ccc(C#Cc2ccc(N3CC4CCC(C3)N4C3COC3)nc2)cc1)NC(=O)[C@@H](NC(=O)OC)C(C)(C)C(F)(F)F)C(C)(C)C [Example 53, Methyl ((5S,8S,9S,14S)-11-(2,6-difluoro-4-(pyridin-2-yl)benzyl)-9-hydroxy-15,15-dimethyl-8-(4-((6-(8-(oxetan-3-yl)-3,8-diazabicyclo[3.2.1]octan-3-yl)pyridin-3-yl)ethynyl)benzyl)-3,6,13-trioxo-5-(1,1,1-trifluoro-2-methylpropan-2-yl)-2-oxa-4,7,11,12-tetraazahexadecan-14-yl)carbamate] | 2.98 | 0.51 | 0.2 |
|  |  | COC(=O)N[C@H](C(=O)N[C@@H](Cc1ccc(C#Cc2ccc(N3CC4CC(C3)N4C3COC3)nc2)cc1)[C@@H](O)CN(Cc1c(F)cc(-c2ccccn2)cc1F)NC(=O)[C@@H](NC(=O)OC)C(C)(C)C(F)(F)F)C(C)(C)C(F)(F)F [Example 175, Methyl ((5S,8S,9S,14S)-11-(2,6-difluoro-4-(pyridin-2-yl)benzyl)-16,16,16-trifluoro-9-hydroxy-15,15-dimethyl-8-(4-((6-(6-(oxetan-3-yl)-3,6-diazabicyclo[3.1.1]heptan-3-yl)pyridin-3-yl)ethynyl)benzyl)-3,6,13-trioxo-5-(1,1,1-trifluoro-2-methylpropan-2-yl)-2-oxa-4,7,11,12-tetraazahexadecan-14-yl)carbamate] | 2.17 | 0.67 | 0.7 |
|  |  | COC(=O)N[C@H](C(=O)N[C@@H](Cc1ccc(C#Cc2ccc(N3CC4CCC(C3)N4C3COC3)nc2)cc1)[C@@H](O)CN(Cc1c(F)cc(-c2ccn([C@H]3CCOC3)n2)cc1F)NC(=O)[C@@H](NC(=O)OC)C(C)(C)C(F)(F)F)C(C)(C)C(F)(F)F [Example 14, Methyl ((5S,8S,9S,14S)-11-(2,6-difluoro-4-(1-((S)-tetrahydrofuran-3-yl)-1H-pyrazol-3-yl)benzyl)-16,16,16-trifluoro-9-hydroxy-15,15-dimethyl-8-(4-((6-(8-(oxetan-3-yl)-3,8-diazabicyclo[3.2.1]octan-3-yl)pyridin-3-yl)ethynyl)benzyl)-3,6,13-trioxo-5-(1,1,1-trifluoro-2-methylpropan-2-yl)-2-oxa-4,7,11,12-tetraazahexadecan-14-yl)carbamate] | 4.39 | 0.66 | 1.13 |
|  |  | COC(=O)N[C@H](C(=O)N[C@@H](Cc1ccc(C#Cc2ccc(N3CC4COCC(C3)N4)nc2)cc1)[C@@H](O)CN(Cc1c(F)cc(-c2ccn(C(F)F)n2)cc1F)NC(=O)[C@@H](NC(=O)OC)C(C)(C)C(F)(F)F)C(C)(C)C(F)(F)F [Example 26, Methyl ((5S,8S,9S,14S)-8-(4-((6-(3-oxa-7,9-diazabicyclo[3.3.1]nonan-7-yl)pyridin-3-yl)ethynyl)benzyl)-11-(4-(1-(difluoromethyl)-1H-pyrazol-3-yl)-2,6-difluorobenzyl)-16,16,16-trifluoro-9-hydroxy-15,15-dimethyl-3,6,13-trioxo-5-(1,1,1-trifluoro-2-methylpropan-2-yl)-2-oxa-4,7,11,12-tetraazahexadecan-14-yl)carbamate] | 4.24 | <0.11 | 1.6 |
|  |  | COC(=O)N[C@H](C(=O)NN(Cc1c(F)cc(-c2cnn(C(F)F)c2)cc1F)C[C@H](O)[C@H](Cc1ccc(C#Cc2ccc(N3CC4CCC(C3)N4C3COC3)nc2)cc1)NC(=O)[C@@H](NC(=O)OC)C(C)(C)C(F)(F)F)C(C)(C)C [Example 86, Methyl ((5S,8S,9S,14S)-11-(4-(1-(difluoromethyl)-1H-pyrazol-4-yl)-2,6-difluorobenzyl)-9-hydroxy-15,15-dimethyl-8-(4-((6-(8-(oxetan-3-yl)-3,8-diazabicyclo[3.2.1]octan-3-yl)pyridin-3-yl)ethynyl)benzyl)-3,6,13-trioxo-5-(1,1,1-trifluoro-2-methylpropan-2-yl)-2-oxa-4,7,11,12-tetraazahexadecan-14-yl)carbamate] | 2.61 | <0.11 | <0.18 |
| 0.18 | <0.18 | CC(C)([C@H](NC(=O)OC1CC1)C(=O)N[C@@H](Cc1ccc(-c2cnn(C(F)F)c2)cc1)[C@@H](O)CN(Cc1c(F)cc(-c2cnn(C(F)F)c2)cc1F)NC(=O)[C@@H](NC(=O)OC1CC1)C(C)(C)C(F)(F)F)C(F)(F)F [Example 210, Cyclopropyl ((S)-1-(2-((2S,3S)-3-((S)-2-((cyclopropoxycarbonyl)amino)-4,4,4-trifluoro-3,3-dimethylbutanamido)-4-(4-(1-(difluoromethyl)-1H-pyrazol-4-yl)phenyl)-2-hydroxybutyl)-2-(4-(1-(difluoromethyl)-1H-pyrazol-4-yl)-2,6-difluorobenzyl)hydrazinyl)-4,4,4-trifluoro-3,3-dimethyl-1-oxobutan-2-yl)carbamate] | 15 |  |  |
